# Measurements taken from patent US7737158B2, “Processes for regulating blood glucose in a mammal” (Washington University, priority 2005, dated 2010).
# Entries after “also recorded” stand apart in the source; their conditions may differ.
# Legend:
# [1] = system: Chinese hamster ovary (CHO) cells; assay: Secretion assay with brefeldin A in transfected CHO cells (Western blot); format: cell-based; settings: BFA-treated transfected CHO cells
# Method: Cell extracts and culture supernatants were collected 48 hours after transfection, and subjected to immunoprecipitation with anti-FLAG® antibody-conjugated beads as described above, and analyzed by Western Blot with rabbit polyclonal anti-FLAG® antibody (Sigma, MO). Cells were also treated with BFA as described above.
# [2] = system: HIB-1B adipocytes; assay: Secretion assay with brefeldin A in differentiated HIB-1B adipocytes (Western blot); format: cell-based, mouse; settings: BFA 0.5 ug/ml, 12 hours, differentiated HIB-1B adipocytes (day 8)
# Method: HIB-1B cells expressing Nampt-FLAG, Dhfr-FLAG, and Ppl-FLAG were differentiated to mature adipocytes (day 8) in 10-cm dishes, and their cell extracts were collected and immunoprecipitated as described above. Culture supernatant (˜8 ml) were collected and immunoprecipitated overnight at 4° C. with anti-FLAG antibody-conjugated beads, washed twice with PBS, and analyzed by Western Blot with rabbit polyclonal anti-FLAG antibody (Sigma, MO).
# Brefeldin A (BFA), a potent inhibitor of the classical secretory pathway, was added to examine if Nampt-FLAG® is secreted through the ER-Golgi system. Fully differentiated HIB-1B adipocytes (day 8) were treated with BFA (0.5 ug/ml, Sigma, MO) for 12 hours, and cell extracts and culture supernatants were collected and analyzed as described above.
# [3] = system: mouse mammary carcinoma model; settings: eight intraperitoneal injections, 25 mg/kg per injection, 12-hour interval; Muruganandham et al. 2005; cited from earlier work
# [4] = system: C57BL/6 mice; assay: Blood glucose levels after intraperitoneal injection in fasted C57BL/6 mice; format: in vivo, mouse; settings: for effect on blood glucose levels at lower dose: 50 mg/kg intraperitoneal, compared with 500 mg/kg; for blood glucose levels: 4-hr fast, 0-120 min after injection
# Method: In this Example, five adult mice (C57BL/6; male; 3-4 months of age) were subjected to a 4-hr fast followed by intraperitoneal injection (500 mg/kg; 50 mg/kg) of nicotinamide, nicotinamide mononucleotide (NMN), or nicotinamide adenine dinucleotide (NAD). A control group of five fasted mice ([…]) were injected with PBS.
# Blood glucose levels were measured from tail vein blood samples with an Accu-Chek glucometer (Roche Diagnostics) at 0, 15, 30, 60 and 120 min after injection.
# [5] = system: Nampt^+/− mice; assay: Intraperitoneal glucose tolerance test (IPGTT) after NMN administration in Nampt+/- mice; format: in vivo, mouse
# Method: Intraperitoneal glucose tolerance tests (IPGTTs) were conducted with a does of 3 g dextrose/kg body weight on Nampt^+/− and Nampt^+/+ siblings. For the IPGTTs, after mice were injected with PBS or NMN (500 mg/kg body weight) and fasted for 12-14 hours, dextrose (3 g/kg body weight) was injected intraperitoneally, and blood glucose levels were measured at 0, 15, 30, 60, and 120 min after injection. Plasma was also collected at 0 and 30 min time points after glucose injection and submitted for insulin measurements to the Washington University RIA Core facility. For the ITTs, after female mice were fasted for 4 hours, human insulin (0.75 U/kg body weight) (Lilly) was injected intraperitoneally to these mice, and blood glucose levels were measured at 0, 15, 30, 45, and 60min after insulin injection.
# If the NAD biosynthetic activity of Nampt is responsible for the phenotypes observed in Nampt^+/− mice, the administration of NMN, a product of the Nampt enzymatic reaction, should be able to correct their problems. To test this possibility, the same Nampt^+/− mice that were used for IPGTTs were injected with NMN at a dose of 500 mg/kg body weight intraperitoneally ˜14 hrs prior to IPGTTs. As a control, PBS was injected to the mice ˜14 hrs before conducting previous IPGTTs. […] Blood glucose levels were monitored with a glucometer at 0, 30, and 60 min time points after injection.
# [6] = system: B6 mice; assay: Toxicity of NMN dose in B6 mice; format: in vivo, mouse; settings: NMN 500 mg/kg body weight
# Text: Therefore, it will be of great interest to examine whether NMN administration also alleviates the effects of Nampt haplodeficiency in HFD-fed Nampt^+/− mice and even improves the symptoms in HFD-fed Nampt^+/+ mice. […] NMN administration causes an acute increase in blood glucose within 2 hrs, probably due to the rapid release of calcium and eicosanoid in the liver (Broetto-Biazon et al., Eur. J. Pharmacol., (2004) 484, 291-301). Therefore, physiological tests will be conducted ˜14 hrs after NMN injection, as described in Example 18.
# [7] = system: NIH3T3 cells; assay: Total cellular NAD levels in NIH3T3 cells by HPLC; format: cell-based, mouse; settings: addition of 5 mM nicotinamide to the medium (otherwise 33 μM)
# Method: Total cellular levels of NAD was measured in the NIH3T3 cell lines overexpressing the untagged enzymes. High performance liquid chromatography was used to measure NAD (Neubert et al., Biochim. Biophys. Acta., (1964) 92, 610-612; Emanuelli et al., J. Chromatogr., (1996) B. 676, 13-18). Briefly, 5×10^5 cells were plated in 6 cm dishes and harvested 48 h later in 800 μl of ice-cold PBS. Cells were then spun down and lysed with 300 μl of 1M HClO4 on ice for 10 min. Lysates were cleared by centrifugating at 4° C. at 18,000 g for 5 minutes. Cleared lysates (240 μl) were neutralized by adding 80 μl of 3M K2CO3 and incubating on ice for 10 minutes. After centrifuging for 10 min, 100 μl of the supernatant were mixed with 400 μl of Buffer A and loaded onto the column. The HPLC was run at a flow rate of 1 ml/min with 100% Buffer A from 0 to 5 min, a linear gradient to 95% Buffer A and 5% Buffer B (100% methanol) from 5 to 6 min, 95% Buffer A and 5% Buffer B from 6 to 11 min, a linear gradient to 85% Buffer A and 15% Buffer B from 11 to 13 min, 85% Buffer A and 15% Buffer B from 13 to 23 min, and a linear gradient to 100% Buffer A from 23 to 24 min. NAD was eluted as a sharp peak at 22 min. The amount of NAD was quantitated based on the peak area compared to a standard curve.
smiles,measurement,setting,value
"C[C@H]1CCC/C=C/[C@@H]2C[C@H](O)C[C@H]2[C@H](O)/C=C/C(=O)O1 [BFA, Brefeldin A]",secretion of Prl-FLAG,[1],significantly inhibited
same,secretion of extracellular Nampt,[1],unaffected
same,eNampt levels in supernatant (extracellular Nampt secretion),[2],not affected; also recorded: not inhibited
same,secretion of Prl-FLAG,[2],significantly inhibited
same,secretion of Prl-FLAG,[2]; listed as brefeldin A,inhibited
O=C(/C=C/c1cccnc1)NCCCCC1CCN(C(=O)c2ccccc2)CC1 [FK866],inhibition of NAD biosynthesis in vivo,[3],effective to inhibit NAD biosynthesis
same,toxicity,[3],without any obvious toxicity
"NC(=O)c1ccc[n+]([C@@H]2O[C@H](COP(=O)([O-])OP(=O)(O)OC[C@H]3O[C@@H](n4cnc5c(N)ncnc54)[C@H](O)[C@@H]3O)[C@@H](O)[C@H]2O)c1 [NAD, Nicotinamide adenine dinucleotide]",effect on blood glucose levels at lower dose,[4],weaker
same,blood glucose levels,[4]; 500 mg/kg intraperitoneal,significantly increased
same,kinetics of glucose increase,"[4]; 500 mg/kg intraperitoneal, comparison between compounds",much more pronounced and long-lasting effect
"NC(=O)c1ccc[n+]([C@@H]2O[C@H](COP(=O)([O-])O)[C@@H](O)[C@H]2O)c1 [NMN, Nicotinamide mononucleotide]",glucose tolerance in IPGTT,"[5]; NMN 500 mg/kg intraperitoneally ~14 hrs prior to IPGTT, Nampt+/- mice compared to Nampt+/+",no longer showed impaired glucose tolerance; also recorded: corrected impaired glucose tolerance; also recorded: can correct
same,glucose-stimulated insulin secretion (plasma insulin) in IPGTT,"[5]; NMN 500 mg/kg intraperitoneally ~14 hrs prior, 30 min after glucose injection, Nampt+/- mice",robust insulin secretion similar to that in Nampt^+/+ mice; also recorded: corrected
same,effect on blood glucose levels at lower dose,[4],weaker
same,blood glucose levels,[4]; 500 mg/kg intraperitoneal,significantly increased
same,time within which the acute increase in blood glucose occurs after administration,[4]; NMN administration,≤ 2 h
same,toxicity,[6],not cause any obvious toxicity
"NC(=O)c1cccnc1 [nicotinamide, 3-pyridinecarboxamide]",total cellular NAD level,[7],did not increase NAD
same,effect on blood glucose levels at lower dose,[4],weaker
same,blood glucose levels,[4]; 500 mg/kg intraperitoneal,significantly increased
